# Test results as given in patent US9795681B2, “Tamper resistant dosage form comprising an adsorbent and an adverse agent” (Purdue Pharma L.P., priority 2004, dated 2017).
# Counter-ions that a name gives are not always drawn.
# Columns and labels:
# [1] = administered orally; cited from earlier work
# [2] = Adsorption of naltrexone hydrochloride onto activated charcoal from 0.1N HCl, HPLC of liquid phase; type: physicochemical; settings: 37° C.; for Naltrexone adsorbed from solution / Naltrexone adsorbed onto the activated charcoal / Naltrexone content in fluid / Naltrexone content in fluid, HPLC area %: 0.1N aqueous HCl
# Protocol: Example 1 describes a non-limiting method for making an adsorbent/adverse agent. The adsorbent used was DARCO activated charcoal obtained from EM Science, an affiliate of Merck KGaA of Darmstadt, Germany. The DARCO activated charcoal used was 20 to 40 mesh black granular charcoal which passed the USP absorptive power test (see The United States Pharmacopeia, 26:404 (2003)) for activated charcoal.
# Adsorption of naltrexone: The activated charcoal (5.02 g) was added to a solution of naltrexone hydrochloride (504.26 mg) (obtained from Mallinkrodt, St. Louis, Mo.) in 0.1N HCI (900 mL). The resultant mixture was stirred at 100 rpm for 120 h at 37° C., and the adsorption (or uptake) of naltrexone hydrochloride into the activated charcoal was monitored by measuring the decrease in concentration of the naltrexone hydrochloride in the liquid phase using high performance liquid chromatography (HPLC). The data was used to calculate the amount of naltrexone adsorbed onto the activated charcoal, e.g., after 2 h, as follows: […]
# [3] = Dynamic desorption of the Charcoal/Naltrexone by washing with 0.1N HCl; type: physicochemical; settings: 1 L aliquots of 0.1N HCl, 25° C.
# Protocol: IN HCI. The concentration of naltrexone hydrochloride in the wash filtrates was measured using HPLC as described above.
structure (smiles),measurement,setting,value
C[C@H]1[C@H]2Cc3ccc(O)cc3[C@]1(C)CCN2CC1CC1 [cyclazocine],duration of action,[1],~24 h
O=C1CC[C@@]2(O)[C@H]3Cc4ccc(O)c5c4[C@@]2(CCN3CC2CC2)[C@H]1O5 [naltrexone],duration of action,[1],~24 h
O=C1CC[C@@]2(O)[C@H]3Cc4ccc(O)c5c4[C@@]2(CCN3CC2CC2)[C@H]1O5 [naltrexone hydrochloride],Naltrexone adsorbed from solution,[2]; time 0 min,0.00%
same,Naltrexone adsorbed onto the activated charcoal,[2]; time 0 min,0.00 mg
same,Naltrexone content in fluid,[2]; time 0 min,504.26 mg
same,"Naltrexone content in fluid, HPLC area %",[2]; time 0 min,4.836 HPLC area %
same,Naltrexone adsorbed from solution,[2]; time 10 min,23.34%
same,Naltrexone adsorbed onto the activated charcoal,[2]; time 10 min,117.69 mg
same,Naltrexone content in fluid,[2]; time 10 min,386.57 mg
same,"Naltrexone content in fluid, HPLC area %",[2]; time 10 min,3.707 HPLC area %
same,Naltrexone adsorbed from solution,[2]; time 20 min,32.01%
same,Naltrexone adsorbed onto the activated charcoal,[2]; time 20 min,161.39 mg
same,Naltrexone content in fluid,[2]; time 20 min,342.87 mg
same,"Naltrexone content in fluid, HPLC area %",[2]; time 20 min,3.288 HPLC area %
same,Naltrexone adsorbed from solution,[2]; time 30 min,37.62%
same,Naltrexone adsorbed onto the activated charcoal,[2]; time 30 min,189.69 mg
same,Naltrexone content in fluid,[2]; time 30 min,314.57 mg
same,"Naltrexone content in fluid, HPLC area %",[2]; time 30 min,3.017 HPLC area %
same,Naltrexone adsorbed from solution,[2]; time 40 min,41.36%
same,Naltrexone adsorbed onto the activated charcoal,[2]; time 40 min,208.55 mg
same,Naltrexone content in fluid,[2]; time 40 min,295.71 mg
same,"Naltrexone content in fluid, HPLC area %",[2]; time 40 min,2.836 HPLC area %
same,Naltrexone adsorbed from solution,[2]; time 50 min,45.37%
same,Naltrexone adsorbed onto the activated charcoal,[2]; time 50 min,228.81 mg
same,Naltrexone content in fluid,[2]; time 50 min,275.45 mg
same,"Naltrexone content in fluid, HPLC area %",[2]; time 50 min,2.642 HPLC area %
same,Naltrexone adsorbed from solution,[2]; time 60 min,47.75%
same,Naltrexone adsorbed onto the activated charcoal,[2]; time 60 min,240.76 mg
same,Naltrexone content in fluid,[2]; time 60 min,263.50 mg
same,"Naltrexone content in fluid, HPLC area %",[2]; time 60 min,2.527 HPLC area %
same,Naltrexone adsorbed from solution,[2]; time 70 min,49.10%
same,Naltrexone adsorbed onto the activated charcoal,[2]; time 70 min,247.60 mg
same,Naltrexone content in fluid,[2]; time 70 min,256.66 mg
same,"Naltrexone content in fluid, HPLC area %",[2]; time 70 min,2.461 HPLC area %
same,Naltrexone adsorbed from solution,[2]; time 80 min,50.76%
same,Naltrexone adsorbed onto the activated charcoal,[2]; time 80 min,255.97 mg
same,Naltrexone content in fluid,[2]; time 80 min,248.29 mg
same,"Naltrexone content in fluid, HPLC area %",[2]; time 80 min,2.381 HPLC area %
same,Naltrexone adsorbed from solution,[2]; time 90 min,52.98%
same,Naltrexone adsorbed onto the activated charcoal,[2]; time 90 min,267.16 mg
same,Naltrexone content in fluid,[2]; time 90 min,237.10 mg
same,"Naltrexone content in fluid, HPLC area %",[2]; time 90 min,2.274 HPLC area %
same,Naltrexone adsorbed from solution,[2]; time 100 min,54.38%
same,Naltrexone adsorbed onto the activated charcoal,[2]; time 100 min,274.20 mg
same,Naltrexone content in fluid,[2]; time 100 min,230.06 mg
same,"Naltrexone content in fluid, HPLC area %",[2]; time 100 min,2.206 HPLC area %
same,Naltrexone adsorbed from solution,[2]; time 120 min,55.36%
same,Naltrexone adsorbed onto the activated charcoal,[2]; time 120 min,279.16 mg
same,Naltrexone content in fluid,[2]; time 120 min,225.10 mg
same,"Naltrexone content in fluid, HPLC area %",[2]; time 120 min,2.159 HPLC area %
same,time within which substantially all of the naltrexone adsorption was completed,"[2]; onto activated charcoal, 0.1N HCl",≤ 1.5 h
same,wash steps during which the majority of the desorption of naltrexone hydrochloride occurred,[3],≤ 18 wash steps
